Assay results as given in PubChem BioAssay AID256 (DTP/NCI, 2004).
Toxic doses and inconclusive results are not listed. Non-standard residues stand in square brackets, D forms with d. Residues, ends and D or L forms follow the SMILES beside them. ξ: configuration not given here. *: point of attachment. Cbz = O=C(OCc1ccccc1)*; ξV = CC(C)C(N)C(=O)O

System: CD2F1 mice, L1210 leukemia ip, survival T/C
Test: NCI In Vivo Anticancer Drug Screen. Data for tumor model L1210 Leukemia (intraperitoneal) in CD2F1 (CDF1) mice
Conditions: higher = longer survival
In short: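 Transplantable tumor in mice; compound-treated vs vehicle-treated groups. Read-out = treated/control ratio of the measured endpoint.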

[1] = endpoint: mean survival time, dose: 50.0 mg/kg/injection, schedule: Q01DX009 (ip), vehicle: saline with Tween-80
[2] = endpoint: mean survival time, dose: 100.0 mg/kg/injection, schedule: Q01DX001 (ip), vehicle: saline
[3] = endpoint: mean survival time, dose: 100.0 mg/kg/injection, schedule: Q01DX009 (ip), vehicle: saline with Tween-80
[4] = endpoint: mean survival time, dose: 100.0 mg/kg/injection, schedule: Q04DX003 (ip), vehicle: saline with Tween-80
[5] = endpoint: mean survival time, dose: 200.0 mg/kg/injection, schedule: Q01DX009 (ip), vehicle: saline with Tween-80
[6] = endpoint: mean survival time, dose: 200.0 mg/kg/injection, schedule: Q04DX003 (ip), vehicle: saline with Tween-80
[7] = endpoint: mean survival time, dose: 400.0 mg/kg/injection, schedule: Q01DX009 (ip), vehicle: saline with Tween-80
[8] = endpoint: mean survival time, dose: 400.0 mg/kg/injection, schedule: Q04DX003 (ip), vehicle: saline with Tween-80
[9] = endpoint: mean survival time, dose: 75.0 mg/kg/injection, schedule: Q01DX001 (ip), vehicle: other
[10] = endpoint: mean survival time, dose: 100.0 mg/kg/injection, schedule: Q04DX003 (ip), vehicle: saline
[11] = endpoint: mean survival time, dose: 200.0 mg/kg/injection, schedule: Q04DX003 (ip), vehicle: saline
[12] = endpoint: mean survival time, dose: 400.0 mg/kg/injection, schedule: Q04DX003 (ip), vehicle: saline

With `OCc1ccc2[n+](c1)CCc1c-2[nH]c2ccccc12` the T/C (endpoint: mean survival time, dose: 12.5 mg/kg/injection, schedule: Q01DX001 (ip), vehicle: saline with Tween-80) was 96 % of control, the T/C (endpoint: mean survival time, dose: 12.5 mg/kg/injection, schedule: Q01DX009 (ip), vehicle: saline with Tween-80) was 98 % of control and the T/C (endpoint: mean survival time, dose: 25.0 mg/kg/injection, schedule: Q01DX001 (ip), vehicle: saline with Tween-80) was 101 % of control. For the same compound, the T/C (endpoint: mean survival time, dose: 25.0 mg/kg/injection, schedule: Q01DX009 (ip), vehicle: saline with Tween-80) was 94 % of control, the T/C (endpoint: mean survival time, dose: 50.0 mg/kg/injection, schedule: Q01DX001 (ip), vehicle: saline with Tween-80) was 101 % of control and the T/C [1] was 100 % of control.

In the case of `C[CH2][Sn]1([CH2]C)[O]C2C(CO)OC(n3ccc(=O)[nH]c3=O)C2[O]1` (centres undefined), the T/C (endpoint: mean survival time, dose: 1.56 mg/kg/injection, schedule: Q01DX005 (ip), vehicle: water) is reported as 103 % of control, the T/C (endpoint: mean survival time, dose: 3.13 mg/kg/injection, schedule: Q01DX005 (ip), vehicle: water) is reported as 102 % of control and the T/C (endpoint: mean survival time, dose: 6.25 mg/kg/injection, schedule: Q01DX005 (ip), vehicle: water) is reported as 96 % of control. The T/C (endpoint: mean survival time, dose: 12.5 mg/kg/injection, schedule: Q01DX005 (ip), vehicle: other) was 104 % of control.

For `O=C(O)c1ccccc1C(=O)N1CCCCC1`, the T/C (endpoint: mean survival time, dose: 12.5 mg/kg/injection, schedule: Q04DX002 (ip), vehicle: saline with Tween-80) was 94 % of control, the T/C (endpoint: mean survival time, dose: 25.0 mg/kg/injection, schedule: Q04DX002 (ip), vehicle: saline with Tween-80) was 90 % of control and the T/C (endpoint: mean survival time, dose: 50.0 mg/kg/injection, schedule: Q04DX002 (ip), vehicle: saline with Tween-80) was 110 % of control.

For `COC(=O)c1cc(C)c(C)cc1NC1OC(CO)C(O)C1O` (centres undefined), the T/C [2] was 91 % of control, the T/C (endpoint: mean survival time, dose: 200.0 mg/kg/injection, schedule: Q01DX001 (ip), vehicle: saline) was 89 % of control and the T/C (endpoint: mean survival time, dose: 400.0 mg/kg/injection, schedule: Q01DX001 (ip), vehicle: saline) was 86 % of control.

For `O/N=C1/CCCC/C1=C/c1ccc(Cl)cc1`, the T/C (endpoint: mean survival time, dose: 100.0 mg/kg/injection, schedule: Q04DX003 (ip), vehicle: Klucel (hydroxypropylcellulose) (HPC)) was 98 % of control, the T/C (endpoint: mean survival time, dose: 200.0 mg/kg/injection, schedule: Q04DX003 (ip), vehicle: Klucel (hydroxypropylcellulose) (HPC)) was 100 % of control and the T/C (endpoint: mean survival time, dose: 400.0 mg/kg/injection, schedule: Q04DX003 (ip), vehicle: Klucel (hydroxypropylcellulose) (HPC)) was 100 % of control.

`Nc1nc(=O)n2ccn(C3OC(CO)C(O)C3O)c2n1` (centres undefined) was tested, and the T/C (endpoint: mean survival time, dose: 12.5 mg/kg/injection, schedule: Q01DX005 (ip), vehicle: distilled water + Tween-80) was 103 % of control, the T/C (endpoint: mean survival time, dose: 25.0 mg/kg/injection, schedule: Q01DX005 (ip), vehicle: distilled water + Tween-80) was 100 % of control and the T/C (endpoint: mean survival time, dose: 50.0 mg/kg/injection, schedule: Q01DX005 (ip), vehicle: distilled water + Tween-80) was 100 % of control. The T/C (endpoint: mean survival time, dose: 100.0 mg/kg/injection, schedule: Q01DX005 (ip), vehicle: distilled water + Tween-80) was 100 % of control and the T/C (endpoint: mean survival time, dose: 200.0 mg/kg/injection, schedule: Q01DX005 (ip), vehicle: distilled water + Tween-80) was 103 % of control.

`NNC(=O)c1ccc(C(=O)NN)cc1` was tested, and the T/C (endpoint: mean survival time, dose: 100.0 mg/kg/injection, schedule: Q01DX001 (ip), vehicle: Klucel (hydroxypropylcellulose) (HPC)) was 91 % of control, the T/C [3] was 97 % of control and the T/C [4] was 94 % of control. The T/C (endpoint: mean survival time, dose: 200.0 mg/kg/injection, schedule: Q01DX001 (ip), vehicle: Klucel (hydroxypropylcellulose) (HPC)) was 100 % of control, the T/C [5] was 107 % of control and the T/C [6] was 96 % of control. For the same compound, the T/C (endpoint: mean survival time, dose: 400.0 mg/kg/injection, schedule: Q01DX001 (ip), vehicle: Klucel (hydroxypropylcellulose) (HPC)) was 88 % of control, the T/C [7] was 104 % of control and the T/C [8] was 96 % of control.

In the case of `CC(C)NC(=O)C1C2CCC(CC2)C1C(=O)NC(C)C` (centres undefined), the T/C [4] is reported as 98 % of control, the T/C [6] is reported as 98 % of control and the T/C [8] is reported as 95 % of control.

`CN1NC=Nc2c(SCc3ccccc3)ncnc21` was tested, and the T/C [9] was 98 % of control.

In the case of `CCCCC=C1CC(C)CCC(C)C1` (centres undefined), the T/C [10] is reported as 101 % of control, the T/C [11] is reported as 104 % of control and the T/C [12] is reported as 104 % of control.

In the case of `Cc1cc(-n2cccc2)no1`, the T/C [3] is reported as 98 % of control, the T/C [5] is reported as 107 % of control and the T/C [7] is reported as 94 % of control.

In the case of `Cc1cccc(C(=O)NN)c1`, the T/C (endpoint: mean survival time, dose: 75.0 mg/kg/injection, schedule: Q01DX001 (ip), vehicle: saline) is reported as 106 % of control.

In the case of `O=C1NC(=O)C2CC=CCC12` (centres undefined), the T/C [3] is reported as 96 % of control, the T/C [5] is reported as 102 % of control and the T/C [7] is reported as 102 % of control.

In the case of `CC(=O)C1CC2c3ccccc3C1c1ccccc12` (centres undefined), the T/C [3] is reported as 98 % of control, the T/C (endpoint: mean survival time, dose: 100.0 mg/kg/injection, schedule: Q04DX003 (ip), vehicle: saline sonified) is reported as 100 % of control and the T/C [5] is reported as 98 % of control. The T/C (endpoint: mean survival time, dose: 200.0 mg/kg/injection, schedule: Q04DX003 (ip), vehicle: saline sonified) was 98 % of control, the T/C [7] was 95 % of control and the T/C (endpoint: mean survival time, dose: 400.0 mg/kg/injection, schedule: Q04DX003 (ip), vehicle: saline sonified) was 91 % of control.

With `CCCCCCCCCCCCCCC(=O)O.[Pb]` the T/C [9] was 103 % of control, the T/C (endpoint: mean survival time, dose: 150.0 mg/kg/injection, schedule: Q01DX001 (ip), vehicle: other) was 103 % of control and the T/C (endpoint: mean survival time, dose: 300.0 mg/kg/injection, schedule: Q01DX001 (ip), vehicle: other) was 98 % of control.

`COC(=O)C(NC(=O)CNC(=O)OCc1ccccc1)C(C)C` (stereo not drawn) (Cbz-Gly-[ξV]-OMe) was tested, and the T/C [4] was 100 % of control, the T/C [6] was 97 % of control and the T/C [8] was 99 % of control.

For `COc1c(C)c(Br)c(OC)c2ccccc12`, the T/C [4] was 94 % of control, the T/C [6] was 94 % of control and the T/C [8] was 100 % of control.

For `CC1CC2(C)C(CC1=O)CC(C)C1C2CCC2(C)C1CCC2(C)O` (centres undefined), the T/C [4] was 102 % of control, the T/C [6] was 102 % of control and the T/C [8] was 100 % of control.

For `O=c1[nH]cnc2c1nnn2C1OC(CO)C(O)C1O` (centres undefined), the T/C (endpoint: median survival time, dose: 50.0 mg/kg/injection, schedule: Q01DX005 (ip), vehicle: saline) was 121 % of control, the T/C (endpoint: median survival time, dose: 200.0 mg/kg/injection, schedule: Q01DX005 (ip), vehicle: saline) was 156 % of control and the T/C (endpoint: median survival time, dose: 400.0 mg/kg/injection, schedule: Q01DX005 (ip), vehicle: saline) was 160 % of control. The T/C (endpoint: median survival time, dose: 400.0 mg/kg/injection, schedule: Q01DX005 (ip), vehicle: suspension in saline) was 90 % of control and the T/C (endpoint: median survival time, dose: 800.0 mg/kg/injection, schedule: Q01DX005 (ip), vehicle: saline) was 111 % of control.

For `Cc1ccccc1CC(C)c1ccccc1` (centres undefined), the T/C [1] was 101 % of control, the T/C [3] was 101 % of control and the T/C [4] was 90 % of control. For the same compound, the T/C [5] was 90 % of control and the T/C [6] was 88 % of control.

For `C[S+](C)c1ccccc1`, the T/C (endpoint: mean survival time, dose: 12.5 mg/kg/injection, schedule: Q04DX002 (ip), vehicle: saline) was 100 % of control, the T/C (endpoint: mean survival time, dose: 25.0 mg/kg/injection, schedule: Q04DX002 (ip), vehicle: saline) was 96 % of control and the T/C (endpoint: mean survival time, dose: 50.0 mg/kg/injection, schedule: Q04DX002 (ip), vehicle: saline) was 100 % of control.

For `O=[N+]([O-])c1ccc(O/N=C(\CN2CCOCC2)c2ccc(Cl)cc2)c([N+](=O)[O-])c1`, the T/C [4] was 94 % of control, the T/C [6] was 86 % of control and the T/C [8] was 90 % of control.

For `CC(=O)Nc1ccc(OC(=O)Nc2cccc(F)c2)cc1`, the T/C [3] was 91 % of control, the T/C [5] was 95 % of control and the T/C [7] was 91 % of control.

With `COC(=O)C(NC=O)C(=O)OC` the T/C (endpoint: mean survival time, dose: 100.0 mg/kg/injection, schedule: Q01DX009 (ip), vehicle: saline) was 105 % of control, the T/C [10] was 93 % of control and the T/C (endpoint: mean survival time, dose: 200.0 mg/kg/injection, schedule: Q01DX009 (ip), vehicle: saline) was 107 % of control. For the same compound, the T/C [11] was 101 % of control, the T/C (endpoint: mean survival time, dose: 400.0 mg/kg/injection, schedule: Q01DX009 (ip), vehicle: saline) was 117 % of control and the T/C [12] was 95 % of control.

In the case of `CCOC(=O)C1=C(C)N(Cc2ccccc2)C(C)=C(C(=O)OCC)C1(C)C`, the T/C [3] is reported as 107 % of control, the T/C [5] is reported as 109 % of control and the T/C [7] is reported as 107 % of control.

In the case of `CCCCCC(C)(C)N=C=S`, the T/C [4] is reported as 100 % of control and the T/C [6] is reported as 96 % of control.

For `CSc1cc(C)n2nnnc2n1`, the T/C [2] was 101 % of control.

For `N#CC[CH2][Sn]([I])([c]1ccccc1)[c]1ccccc1`, the T/C (endpoint: mean survival time, dose: 6.25 mg/kg/injection, schedule: Q04DX003 (ip), vehicle: saline with Tween-80) was 97 % of control and the T/C (endpoint: mean survival time, dose: 12.5 mg/kg/injection, schedule: Q04DX003 (ip), vehicle: saline with Tween-80) was 97 % of control.

For `COc1cc(Cl)ccc1NC(=O)Nc1ccc(S(N)(=O)=O)cc1`, the T/C [1] was 91 % of control, the T/C [3] was 100 % of control and the T/C [5] was 91 % of control.

In the case of `CC12CCC(/C(=C/NNc3ccc([N+](=O)[O-])cc3[N+](=O)[O-])C1=O)C2(C)C` (centres undefined), the T/C [4] is reported as 93 % of control, the T/C [6] is reported as 90 % of control and the T/C [8] is reported as 96 % of control.
